The values that follow come from PMC6271245, “Discovery of Gramine Derivatives That Inhibit the Early Stage of EV71 Replication in Vitro” (Molecules, 2014).

In one test the test system is EV71 protein. Description: Viral protein by indirect immunofluorescence in RD cells. The format is cell-based, Enterovirus 71. To be noted: 40 µg/mL post-infection, RD cells, 4, 8 or 24 h. Here is the method: (§1) Figure 4 The effect of 4s on EV71 replication in RD cells. RD cells infected with 100 TCID50 of EV71 were incubated in the absence (virus control) or presence of 40 µg/mL 4s and harvested at the indicated times pi. (A) Total RNA was extracted from cells and culture supernatants and EV71 RNA levels were measured. Cellular actin amplification was used for normalization. The ΔΔCt data were calculated from three independent experiments; (B) EV71-protein was determined by indirect immunofluorescence using a mouse anti-enterovirus 71 monoclonal antibody and an Alexa-Fluor-488-conjugated AffiniPure goat anti-mouse IgG (H + L). The nucleus was stained with DAPI; the green foci indicate the presence of EV71 protein.
The influence of 4s on the replication of EV71 was also determined at the translational level. The RD cells grown in 24 coverslips were infected with EV71 and treated with 40 µg/mL 4s post-infection, intracellular viral protein was detected by indirect immunofluorescence analysis after incubation for 4, 8 or 24 h. […]

Another test concerns EV71 RNA. Description: Viral RNA synthesis by quantitative RT-PCR in RD cells. The format is cell-based, Enterovirus 71. Particulars: 40 µg/mL. Here is the method: To further analyze the effect of 4s on EV71 replication in RD cells, the efficacy of 4s in inhibiting viral RNA synthesis was analyzed by quantitative reverse transcription polymerase chain reaction (RT-PCR). The infected cells treated with or without 40 µg/mL 4s were harvested at 4, 8, 24 and 36 h pi to examine the relative amount of viral RNA. The fold difference of RNA for all the samples was calculated relative to the RNA level in the EV71-infected cells (virus control) at 4 h pi.
as §1
The EV71 RNA was extracted from infected cells and culture supernatants with TRIzol (Gibco-Invitrogen, Carlsbad, CA, USA) and reverse-transcribed using a PrimeScript RT reagent kit (TaKaRa, Dalian, China) according to the manufacturer’s instructions. The products of reverse transcription were quantified with the SYBR Premix Ex Taq II (perfect real time) kit (TaKaRa) and detected with a Step One Plus sequence detection system (Applied Biosystems, Foster City, CA, USA). Expression of actin was used as an internal standard. The special primer sequences were: EV71-VP1-F: 5'-[…]-3', EV71-VP1-R: 5'-GTCTCAATCATGCTCTC GTCACT-3'; Actin-F: 5'-[…]-3', Actin-R: 5'-AGGGGCCGGACTCGT CATACT-3'.

In the next test the test system is EV71-infected RD cells. Description: EV71-induced apoptosis, Annexin-V/propidium iodide flow cytometry. Particulars: 40 µg/mL, 100 TCID50 EV71, 36–48 h. The format is cell-based, Human. Here is the method:
EV71 adsorption, internalization, entry, uncoating, and viral RNA replication are […] to trigger infected cell apoptosis, but it is required for viral protein synthesis. Flow cytometry was performed to investigate the effect of 4s on virus-induced cell apoptosis. In the assays, EV71-infected cells were stained with Annexin-V-fluorescein and propidium iodide; fluorescence drifting indicates cells undergoing apoptosis.
Figure 5 Inhibition effect of 4s on EV71-induced apoptosis. RD cells were (A) left untreated or (B) infected with 100 TCID50 of EV71. After viral adsorption, RD cells were incubated in the (B) absence or (C) presence of 40 µg/mL 4s for 36–48 h; (D) The cells were stained with Annexin-V- fluorescein and propidium iodide and measured using flow cytometry. TEXT PRINTED IN THE PICTURE: (C) Virus + 4s: Q1 3.21%; Q2 4.06%; Q4 89.2%; Q3 3.55% DOUBTS OF THE COPYIST ABOUT THIS PICTURE: Panels A (Mock) and B (Virus control) also print quadrant percentages (A: 0.548%, 1.84%, 93.9%, 3.75%; B: 1.32%, 40.1%, 23.7%, 34.9%). I left them out because they are controls without a substance.
For the apoptosis assay, RD cells in 6-well plates infected with 100 TCID50 of EV71 were left untreated or treated with 40 µg/mL 4s for 36–48 h, until the CPEs of virus control cells reached 70%–80%. […]

The structures appear in SMILES notation.

Turning to `c1ccc(C(Nc2nc3ccccc3s2)c2c[nH]c3ccccc23)nc1` (stereo not drawn) [Compound 4s], the “viral protein synthesis (immunofluorescent foci)” value with EV71 protein is “suppressed”. Also, the “fold reduction of viral RNA copy number vs virus control” value in the test with EV71 RNA (4 h pi) turned out to be 1.8 fold; in the test with EV71 RNA (8 h pi), 9.0 fold; in the test with EV71 RNA (24 h pi) it was 79.8 fold; in the test on EV71 RNA (36 h pi) it was 174.7 fold. Besides, the “EV71-induced apoptosis (fluorescence drifting)” value in the test with EV71-infected RD cells is “fluorescence drifting could hardly be observed”.
